# Laboratory results taken from ChEMBL document CHEMBL3885881, “DrugMatrix”.
# Organism: Rattus norvegicus
# Experiment: DrugMatrix - Regimen: Daily Repeat
# Type: toxicity, organism-based, Sprague-Dawley
# Parameters: regimen Daily Repeat, gender Male, age 6-8 weeks
# Conditions: in vivo, po, route oral GAVAGE, vehicle .5 % CMC; for ABSOLUTE BASOPHIL / ABSOLUTE EOSINOPHIL / ABSOLUTE LYMPHOCYTE / ABSOLUTE MONOCYTE / ABSOLUTE SEGMENTED NEUTROPHIL / BASOPHIL / EOSINOPHIL / ERYTHROCYTE COUNT / HEMATOCRIT / HEMOGLOBIN / LEUKOCYTE COUNT / LYMPHOCYTE / MEAN CORPUSCULAR HEMOGLOBIN / MEAN CORPUSCULAR HEMOGLOBIN CONCENTRATION / MEAN CORPUSCULAR VOLUME / MONOCYTE / NEUTROPHIL / NUCLEATED RED BLOOD CELLS / PLATELET COUNT: tissue Blood; for ALANINE AMINOTRANSFERASE / ALBUMIN / ALKALINE PHOSPHATASE / ASPARTATE AMINOTRANSFERASE / BLOOD UREA NITROGEN / CARBON DIOXIDE / CHLORIDE / CHOLESTEROL / CREATINE PHOSPHOKINASE / CREATININE / GLUCOSE / LACTATE DEHYDROGENASE / LIPASE / PHOSPHORUS / POTASSIUM / SODIUM / TOTAL BILIRUBIN / TOTAL PROTEIN / URIC ACID: tissue Plasma
# [1] = 40 mg/kg, 120 h, dose level Low, time 5 day
# [2] = 1200 mg/kg, 72 h, dose level High, time 3 day
# [3] = 1200 mg/kg, 120 h, dose level High, time 5 day
compound,measurement,setting,value
C[C@@](Cc1ccc(O)c(O)c1)(NN)C(=O)O.O [CARBIDOPA],ABSOLUTE BASOPHIL,[1],0 CELLS/uL
same,ABSOLUTE EOSINOPHIL,[1],155.33 CELLS/uL
same,ABSOLUTE LYMPHOCYTE,[1],12037.67 CELLS/uL
same,ABSOLUTE MONOCYTE,[1],0 CELLS/uL
same,ABSOLUTE SEGMENTED NEUTROPHIL,[1],1407 CELLS/uL
same,BASOPHIL,[1],0%
same,EOSINOPHIL,[1],1%
same,ERYTHROCYTE COUNT,[1],5.47 x10E6/uL
same,HEMATOCRIT,[1],34.83%
same,HEMOGLOBIN,[1],13.23 G/DL
same,LEUKOCYTE COUNT,[1],13.6 x10E3/uL
same,LYMPHOCYTE,[1],88.33%
same,MEAN CORPUSCULAR HEMOGLOBIN,[1],24.23 pg
same,MEAN CORPUSCULAR HEMOGLOBIN CONCENTRATION,[1],38 G/DL
same,MEAN CORPUSCULAR VOLUME,[1],63.7 fL
same,MONOCYTE,[1],0%
same,NEUTROPHIL,[1],10.67%
same,NUCLEATED RED BLOOD CELLS,[1],0 /100WBC
same,PLATELET COUNT,[1],1237.67 x10E3/uL
same,ALANINE AMINOTRANSFERASE,[1],28.67 u/L
same,ALBUMIN,[1],4.33 G/DL
same,ALKALINE PHOSPHATASE,[1],366.33 u/L
same,ASPARTATE AMINOTRANSFERASE,[1],83 u/L
same,BLOOD UREA NITROGEN,[1],16 mg/dL
same,CARBON DIOXIDE,[1],26 mmol/L
same,CHLORIDE,[1],102.33 MEQ/L
same,CHOLESTEROL,[1],65.67 mg/dL
same,CREATINE PHOSPHOKINASE,[1],277.33 u/L
same,CREATININE,[1],0.2 mg/dL
same,GLUCOSE,[1],155.67 mg/dL
same,LACTATE DEHYDROGENASE,[1],251 u/L
same,LIPASE,[1],8.33 u/L
same,PHOSPHORUS,[1],12.53 mg/dL
same,POTASSIUM,[1],6.15 MEQ/L
same,SODIUM,[1],144.4 MEQ/L
same,TOTAL BILIRUBIN,[1],0.2 mg/dL
same,TOTAL PROTEIN,[1],6.03 G/DL
same,URIC ACID,[1],1.4 mg/dL
same,ABSOLUTE BASOPHIL,[2],0 CELLS/uL
same,ABSOLUTE EOSINOPHIL,[2],309.67 CELLS/uL
same,ABSOLUTE LYMPHOCYTE,[2],11320 CELLS/uL
same,ABSOLUTE MONOCYTE,[2],0 CELLS/uL
same,ABSOLUTE SEGMENTED NEUTROPHIL,[2],1103.67 CELLS/uL
same,BASOPHIL,[2],0%
same,EOSINOPHIL,[2],2.33%
same,ERYTHROCYTE COUNT,[2],5.55 x10E6/uL
same,HEMATOCRIT,[2],35.43%
same,HEMOGLOBIN,[2],13.47 G/DL
same,LEUKOCYTE COUNT,[2],12.73 x10E3/uL
same,LYMPHOCYTE,[2],88.67%
same,MEAN CORPUSCULAR HEMOGLOBIN,[2],24.3 pg
same,MEAN CORPUSCULAR HEMOGLOBIN CONCENTRATION,[2],38.03 G/DL
same,MEAN CORPUSCULAR VOLUME,[2],63.83 fL
same,MONOCYTE,[2],0%
same,NEUTROPHIL,[2],9%
same,NUCLEATED RED BLOOD CELLS,[2],0 /100WBC
same,PLATELET COUNT,[2],1345.33 x10E3/uL
same,ALANINE AMINOTRANSFERASE,[2],8.67 u/L
same,ALBUMIN,[2],4.63 G/DL
same,ALKALINE PHOSPHATASE,[2],300.67 u/L
same,ASPARTATE AMINOTRANSFERASE,[2],64.67 u/L
same,BLOOD UREA NITROGEN,[2],22.33 mg/dL
same,CARBON DIOXIDE,[2],26 mmol/L
same,CHLORIDE,[2],99 MEQ/L
same,CHOLESTEROL,[2],92.33 mg/dL
same,CREATINE PHOSPHOKINASE,[2],315 u/L
same,CREATININE,[2],0.24 mg/dL
same,GLUCOSE,[2],171.33 mg/dL
same,LACTATE DEHYDROGENASE,[2],80 u/L
same,LIPASE,[2],8.67 u/L
same,PHOSPHORUS,[2],12.73 mg/dL
same,POTASSIUM,[2],6.79 MEQ/L
same,SODIUM,[2],143.93 MEQ/L
same,TOTAL BILIRUBIN,[2],0.17 mg/dL
same,TOTAL PROTEIN,[2],6.5 G/DL
same,URIC ACID,[2],1.6 mg/dL
same,ABSOLUTE BASOPHIL,[3],0 CELLS/uL
same,ABSOLUTE EOSINOPHIL,[3],0 CELLS/uL
same,ABSOLUTE LYMPHOCYTE,[3],11666 CELLS/uL
same,ABSOLUTE MONOCYTE,[3],86.67 CELLS/uL
same,ABSOLUTE SEGMENTED NEUTROPHIL,[3],847.33 CELLS/uL
same,BASOPHIL,[3],0%
same,EOSINOPHIL,[3],0%
same,ERYTHROCYTE COUNT,[3],6.03 x10E6/uL
same,HEMATOCRIT,[3],37.47%
same,HEMOGLOBIN,[3],14.13 G/DL
same,LEUKOCYTE COUNT,[3],12.6 x10E3/uL
same,LYMPHOCYTE,[3],92.33%
same,MEAN CORPUSCULAR HEMOGLOBIN,[3],23.43 pg
same,MEAN CORPUSCULAR HEMOGLOBIN CONCENTRATION,[3],37.7 G/DL
same,MEAN CORPUSCULAR VOLUME,[3],62.1 fL
same,MONOCYTE,[3],0.67%
same,NEUTROPHIL,[3],7%
same,NUCLEATED RED BLOOD CELLS,[3],0 /100WBC
same,PLATELET COUNT,[3],1184.67 x10E3/uL
same,ALANINE AMINOTRANSFERASE,[3],6.67 u/L
same,ALBUMIN,[3],4.57 G/DL
same,ALKALINE PHOSPHATASE,[3],323.33 u/L
same,ASPARTATE AMINOTRANSFERASE,[3],44 u/L
same,BLOOD UREA NITROGEN,[3],20 mg/dL
same,CARBON DIOXIDE,[3],28 mmol/L
same,CHLORIDE,[3],101.33 MEQ/L
same,CHOLESTEROL,[3],58.67 mg/dL
same,CREATINE PHOSPHOKINASE,[3],151.67 u/L
same,CREATININE,[3],0.21 mg/dL
same,GLUCOSE,[3],157.67 mg/dL
same,LACTATE DEHYDROGENASE,[3],98 u/L
same,LIPASE,[3],8 u/L
same,PHOSPHORUS,[3],11.57 mg/dL
same,POTASSIUM,[3],6.41 MEQ/L
same,SODIUM,[3],146.5 MEQ/L
same,TOTAL BILIRUBIN,[3],0.17 mg/dL
same,TOTAL PROTEIN,[3],6.27 G/DL
same,URIC ACID,[3],1.5 mg/dL
